Patent US9745325B2, “Fused heterocyclic compound” (Takeda Pharmaceutical Company Limited, priority 2014, dated 2017)

Assays:
CDK8/CycC = target: T1, CDK8/CycC (Homo sapiens, UniProt P49336); experiment: CDK8 inhibitory activity (Kinase Tracer-236 / Eu-anti-GST fluorescence assay); type: binding; set-up: Percent inhibition of CDK8 activity (%): concentration or dose not given beside the values; details: test compound concentration given as '1 1.1.1\4' [sic]
T1 construct: purchased Carna Biosciences
Procedure, shortened: (§1)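 Tracer-displacement TR-FRET binding assay: compound with kinase, Eu-cryptate anti-GST antibody and 60 nM Kinase Tracer-236 (pre-dilution level), 1 h at room temperature; ex 320 nm, em 615/665 nm. Percent inhibition is relative to no-compound control and a 10 μM control-compound blank.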

CDC2L6/CycC (CDK19) = target: T2, CDC2L6/CycC (CDK19) (Homo sapiens, UniProt Q9BWU1); experiment: CDK19 inhibitory activity (Kinase Tracer-236 / Eu-anti-GST fluorescence assay); type: binding; set-up: Percent inhibition of CDK19 activity (%): concentration or dose not given beside the values; details: test compound concentration given as '1 1.1.1\4' [sic]
T2 construct: purchased Carna Biosciences Inc
Procedure, shortened: as §1

[1] = tested on: human multiple myeloma RPMI8226 cells; experiment: Inhibitory activity against human multiple myeloma RPMI8226 cell growth (CellTiter-Glo); type: cell-based; details: 1 μM test compound, cultured for 8 days; for inhibition at 1 µM: Homo sapiens, RPMI-8226, 192 h, read-out: Percent inhibition of RPMI8226 cell growth (%); for Percent inhibition of RPMI8226 cell growth (%): 1 µM
Procedure, shortened: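 RPMI8226 cells (300/well) cultured 1 day at 37 °C, 5% CO2, then given compound at 1 μM for 8 days. ATP luminescence (CellTiter-Glo) read; percent inhibition relative to 0.1% DMSO wells.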

[2] = tested on: SW480 human colorectal cancer cells; experiment: Antitumor efficacy in mice bearing SW480 human colorectal cancer cells; type: in vivo, BALB/c female nude mice; details: oral, 14 days
Description: The compound of the present invention was evaluated for its antitumor efficacy in mice bearing cancer derived from SW480 human colorectal cancer cells by the following method.
SW480 human colorectal cancer cells were transplanted into 6- to 7-week-old BALB/c female nude mice (CLEA Japan) by subcutaneous injection of 2.0×10^6 cells per mouse. At 7 to 14 days after the transplantation, the size of the engrafted tumor was measured, and the tumor volume was calculated according to the following formula. Tumor volume=major axis×minor axis×minor axis×(½)
Test subjects having an engrafted tumor with a tumor volume of approximately 100 mm^3 were selected and used in the experiment (6 subjects per group). A suspension of each test compound in a 0.5% methylcellulose solution (Wako Pure Chemical Industries) was orally administered to the mice for 14 days at the dose (mg/kg, indicating the amount per dose) and the number of doses shown in Table 4. On the day before the start of the administration and the day before the completion of the administration, the tumor size was measured, and the tumor volume was calculated.
Percent tumor growth (T/C (%)) of the test compound administration group relative to the control administration group was calculated according to the following formula. T/C (%)=(tumor volume of the test compound administration group after the completion of the administration−tumor volume of the test compound administration group at the day before the start of the administration)/(tumor volume of the control administration group after the completion of the administration−tumor volume of the control administration group at the day before the start of the administration))×100

T1 sequence (P49336 whole entry): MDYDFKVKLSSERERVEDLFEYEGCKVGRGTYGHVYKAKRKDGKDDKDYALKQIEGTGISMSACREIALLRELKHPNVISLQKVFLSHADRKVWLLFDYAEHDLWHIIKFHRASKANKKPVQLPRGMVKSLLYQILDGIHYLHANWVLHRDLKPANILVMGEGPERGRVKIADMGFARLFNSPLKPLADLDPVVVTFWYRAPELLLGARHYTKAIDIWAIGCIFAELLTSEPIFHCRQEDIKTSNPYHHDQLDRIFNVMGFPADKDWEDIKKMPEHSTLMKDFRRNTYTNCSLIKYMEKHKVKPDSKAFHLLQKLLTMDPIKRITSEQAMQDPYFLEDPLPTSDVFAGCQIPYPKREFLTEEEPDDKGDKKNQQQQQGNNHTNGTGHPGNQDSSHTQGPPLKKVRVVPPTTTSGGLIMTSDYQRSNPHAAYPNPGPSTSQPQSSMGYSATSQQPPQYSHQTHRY
T1 sequence (P24863 whole entry partner): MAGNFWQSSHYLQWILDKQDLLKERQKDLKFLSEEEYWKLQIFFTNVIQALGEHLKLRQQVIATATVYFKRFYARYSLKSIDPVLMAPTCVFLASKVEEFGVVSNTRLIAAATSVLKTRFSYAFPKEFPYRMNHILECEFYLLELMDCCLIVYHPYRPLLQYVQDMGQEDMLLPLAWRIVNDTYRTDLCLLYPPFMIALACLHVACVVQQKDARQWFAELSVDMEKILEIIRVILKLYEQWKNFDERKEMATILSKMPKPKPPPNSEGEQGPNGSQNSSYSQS
T2 sequence (Q9BWU1 whole entry): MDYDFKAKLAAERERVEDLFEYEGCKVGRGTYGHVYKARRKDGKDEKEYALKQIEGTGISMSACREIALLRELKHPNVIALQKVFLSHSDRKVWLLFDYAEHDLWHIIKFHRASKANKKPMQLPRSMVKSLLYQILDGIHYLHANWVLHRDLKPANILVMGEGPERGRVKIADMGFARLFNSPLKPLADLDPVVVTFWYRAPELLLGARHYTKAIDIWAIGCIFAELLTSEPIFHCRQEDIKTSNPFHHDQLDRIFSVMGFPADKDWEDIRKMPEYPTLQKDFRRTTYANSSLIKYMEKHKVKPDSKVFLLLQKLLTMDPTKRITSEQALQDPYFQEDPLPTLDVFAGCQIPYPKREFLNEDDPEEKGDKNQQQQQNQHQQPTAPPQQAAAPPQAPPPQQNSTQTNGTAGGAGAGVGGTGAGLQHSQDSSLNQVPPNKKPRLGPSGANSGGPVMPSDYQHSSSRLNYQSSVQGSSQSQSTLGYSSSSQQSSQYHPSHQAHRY
T2 sequence (P24863 whole entry partner): as the sequence (P24863 whole entry partner) above

SMILES: Cc1c(Oc2sc(C(N)=O)c3c2-c2sncc2CC3)ccc[n+]1[O-] [Example 9, 8-((2-Methyl-1-oxidopyridin-3-yl)oxy)-4,5-dihydrothieno[3,4-g][1,2]benzothiazole-6-carboxamide]
- Percent inhibition of CDK8 activity (%) (CDK8/CycC): 97%
- Percent inhibition of CDK19 activity (%) (CDC2L6/CycC (CDK19)): 98%
- inhibition at 1 µM [1]: 63%
- T/C (%) ([2]; 5 mg/kg, 1 dose per day): 30%

SMILES: NC(=O)c1ccc(Oc2sc(C(N)=O)c3c2-c2sncc2CC3)cn1 [Example 13, 8-((6-Carbamoylpyridin-3-yl)oxy)-4,5-dihydrothieno[3,4-g][1,2]benzothiazole-6-carboxamide]
- Percent inhibition of CDK8 activity (%) (CDK8/CycC): 97%
- Percent inhibition of CDK19 activity (%) (CDC2L6/CycC (CDK19)): 98%
- inhibition at 1 µM [1]: 69%
- T/C (%) ([2]; 15 mg/kg, 1 dose per day): 50%

SMILES: COCCNC(=O)c1ccc(Oc2sc(C(N)=O)c3c2-c2sncc2CC3)cn1 [Example 18, 8-((6-((2-Methoxyethyl)carbamoyl)pyridin-3-yl)oxy)-4,5-dihydrothieno[3,4-g][1,2]benzothiazole-6-carboxamide]
- Percent inhibition of CDK8 activity (%) (CDK8/CycC): 103%
- Percent inhibition of CDK19 activity (%) (CDC2L6/CycC (CDK19)): 100%
- inhibition at 1 µM [1]: 63%
- T/C (%) ([2]; 10 mg/kg, 1 dose per day): 30%

SMILES: Cc1nc(C(=O)NCC(C)(C)O)ccc1Oc1sc(C(N)=O)c2c1-c1sncc1CC2 [Example 24, 8-((6-((2-Hydroxy-2-methylpropyl)carbamoyl)-2-methylpyridin-3-yl)oxy)-4,5-dihydrothieno[3,4-g][1,2]benzothiazole-6-carboxamide]
- Percent inhibition of CDK8 activity (%) (CDK8/CycC): 102%
- Percent inhibition of CDK19 activity (%) (CDC2L6/CycC (CDK19)): 99%
- inhibition at 1 µM [1]: 64%
- T/C (%) ([2]; 10 mg/kg, 1 dose per day): 32%

SMILES: Cc1nn(C)c(C)c1Oc1sc(C(N)=O)c2c1-c1sncc1CC2 [Example 32, 8-((1,3,5-Trimethyl-1H-pyrazol-4-yl)oxy)-4,5-dihydrothieno[3,4-g][1,2]benzothiazole-6-carboxamide]
- Percent inhibition of CDK8 activity (%) (CDK8/CycC): 107%
- Percent inhibition of CDK19 activity (%) (CDC2L6/CycC (CDK19)): 100%
- inhibition at 1 µM [1]: 63%
- T/C (%) ([2]; 15 mg/kg, 2 doses per day): 36%

SMILES: COCC(=O)N(C)c1ccc(Oc2sc(C(N)=O)c3c2-c2sncc2CC3)c(C)n1 [Example 126, 8-((6-((Methoxyacetyl)(methyl)amino)-2-methylpyridin-3-yl)oxy)-4,5-dihydrothieno[3,4-g][1,2]benzothiazole-6-carboxamide]
- Percent inhibition of CDK8 activity (%) (CDK8/CycC): 103%
- Percent inhibition of CDK19 activity (%) (CDC2L6/CycC (CDK19)): 102%
- inhibition at 1 µM [1]: 67%

SMILES: COCC(=O)Nc1ccc(Oc2sc(C(N)=O)c3c2-c2sncc2CC3)c(C)n1 [Example 127, 8-((6-((Methoxyacetyl)amino)-2-methylpyridin-3-yl)oxy)-4,5-dihydrothieno[3,4-g][1,2]benzothiazole-6-carboxamide]
- Percent inhibition of CDK8 activity (%) (CDK8/CycC): 106%
- Percent inhibition of CDK19 activity (%) (CDC2L6/CycC (CDK19)): 100%
- inhibition at 1 µM [1]: 65%

SMILES: CC(=O)Nc1ccc(Oc2sc(C(N)=O)c3c2-c2sncc2CC3)c(C)n1 [Example 128, 8-((6-Acetamido-2-methylpyridin-3-yl)oxy)-4,5-dihydrothieno[3,4-g][1,2] benzothiazole-6-carboxamide]
- Percent inhibition of CDK8 activity (%) (CDK8/CycC): 98%
- Percent inhibition of CDK19 activity (%) (CDC2L6/CycC (CDK19)): 102%
- inhibition at 1 µM [1]: 70%

SMILES: CNc1ccc(Oc2sc(C(N)=O)c3c2-c2sncc2CC3)cn1 [Example 129, 8-((6-(Methylamino)pyridin-3-yl)oxy)-4,5-dihydrothieno[3,4-g][1,2] benzothiazole-6-carboxamide]
- Percent inhibition of CDK8 activity (%) (CDK8/CycC): 100%
- Percent inhibition of CDK19 activity (%) (CDC2L6/CycC (CDK19)): 98%
- inhibition at 1 µM [1]: 66%

SMILES: NC(=O)c1sc(Oc2ccc(NC(=O)C3CC3)nc2)c2c1CCc1cnsc1-2 [Example 130, 8-((6-((Cyclopropylcarbonyl)amino)pyridin-3-yl)oxy)-4,5-dihydrothieno [3,4-g][1,2]benzothiazole-6-carboxamide]
- Percent inhibition of CDK8 activity (%) (CDK8/CycC): 101%
- Percent inhibition of CDK19 activity (%) (CDC2L6/CycC (CDK19)): 99%
- inhibition at 1 µM [1]: 66%

SMILES: Cc1nc(C(N)=O)ccc1Oc1sc(C(N)=O)c2c1-c1sncc1CC2 [Example 131, 8-((6-Carbamoyl-2-methylpyridin-3-yl)oxy)-4,5-dihydrothieno[3,4-g][1,2] benzothiazole-6-carboxamide]
- Percent inhibition of CDK8 activity (%) (CDK8/CycC): 101%
- Percent inhibition of CDK19 activity (%) (CDC2L6/CycC (CDK19)): 102%
- inhibition at 1 µM [1]: 73%

SMILES: NC(=O)c1sc(Oc2cccnc2)c2c1CCc1cnsc1-2 [Example 132, 8-(Pyridin-3-yloxy)-4,5-dihydrothieno [3,4-g][1,2]benzothiazole-6-carboxamide]
- Percent inhibition of CDK8 activity (%) (CDK8/CycC): 102%
- Percent inhibition of CDK19 activity (%) (CDC2L6/CycC (CDK19)): 97%
- inhibition at 1 µM [1]: 61%

SMILES: CCC(=O)Nc1ccc(Oc2sc(C(N)=O)c3c2-c2sncc2CC3)c(C)n1 [Example 133, 8-((2-Methyl-6-(propionylamino)pyridin-3-yl)oxy)-4,5-dihydrothieno [3,4-g][1,2]benzothiazole-6-carboxamide]
- Percent inhibition of CDK8 activity (%) (CDK8/CycC): 110%
- Percent inhibition of CDK19 activity (%) (CDC2L6/CycC (CDK19)): 101%
- inhibition at 1 µM [1]: 63%

SMILES: CCC(=O)Nc1ccc(Oc2sc(C(N)=O)c3c2-c2sncc2CC3)cn1 [Example 134, 8-((6-(Propionylamino)pyridin-3-yl)oxy)-4,5-dihydrothieno[3,4-g][1,2] benzothiazole-6-carboxamide]
- Percent inhibition of CDK8 activity (%) (CDK8/CycC): 100%
- Percent inhibition of CDK19 activity (%) (CDC2L6/CycC (CDK19)): 99%
- inhibition at 1 µM [1]: 59%

SMILES: CC(=O)N(C)c1ccc(Oc2sc(C(N)=O)c3c2-c2sncc2CC3)cn1 [Example 135, 8-((6-(Acetyl(methyl)amino)pyridin-3-yl)oxy)-4,5-dihydrothieno[3,4-g][1,2] benzothiazole-6-carboxamide]
- Percent inhibition of CDK8 activity (%) (CDK8/CycC): 109%
- Percent inhibition of CDK19 activity (%) (CDC2L6/CycC (CDK19)): 97%
- inhibition at 1 µM [1]: 55%

SMILES: CCOC(=O)Nc1ccc(Oc2sc(C(N)=O)c3c2-c2sncc2CC3)c(C)n1 [Example 136, Ethyl (5-((6-carbamoyl-4,5-dihydrothieno[3,4-g][1,2]benzothiazol-8-yl)oxy)-6-methylpyridin-2-yl) carbamate]
- Percent inhibition of CDK8 activity (%) (CDK8/CycC): 107%
- Percent inhibition of CDK19 activity (%) (CDC2L6/CycC (CDK19)): 102%
- inhibition at 1 µM [1]: 66%

SMILES: COCCNC(=O)c1ccc(Oc2sc(C(N)=O)c3c2-c2sncc2CC3)cn1 [Example 138, 8-((6-((2-Methoxyethyl)carbamoyl)pyridin-3-yl)oxy)-4,5-dihydrothieno[3,4-g][1,2]benzothiazole-6-carboxamide fumaric acid (1:1)]
- Percent inhibition of CDK8 activity (%) (CDK8/CycC): 103%
- Percent inhibition of CDK19 activity (%) (CDC2L6/CycC (CDK19)): 100%
- Percent inhibition of RPMI8226 cell growth (%) [1]: 69%

SMILES: COCCNC(=O)c1ccc(Oc2sc(C(N)=O)c3c2-c2sncc2CC3)cn1 [Example 139, 8-((6-((2-Methoxyethyl)carbamoyl)pyridin-3-yl)oxy)-4,5-dihydrothieno[3,4-g][1,2]benzothiazole-6-carboxamide succinic acid (1:1)]
- Percent inhibition of CDK8 activity (%) (CDK8/CycC): 103%
- Percent inhibition of CDK19 activity (%) (CDC2L6/CycC (CDK19)): 100%
- Percent inhibition of RPMI8226 cell growth (%) [1]: 71%
